This passage reports Ki results from US7795259B2, “Pyrrolopyrazines and pyrazolopyrazines useful as inhibitors of protein kinases” (Vertex Pharmaceuticals Incorporated, priority 2004, dated 2010).

The assay deals with T1, full length Aurora-A (AA 1-403) (Homo sapiens, UniProt O14965).
T1 sequence (O14965 1-403): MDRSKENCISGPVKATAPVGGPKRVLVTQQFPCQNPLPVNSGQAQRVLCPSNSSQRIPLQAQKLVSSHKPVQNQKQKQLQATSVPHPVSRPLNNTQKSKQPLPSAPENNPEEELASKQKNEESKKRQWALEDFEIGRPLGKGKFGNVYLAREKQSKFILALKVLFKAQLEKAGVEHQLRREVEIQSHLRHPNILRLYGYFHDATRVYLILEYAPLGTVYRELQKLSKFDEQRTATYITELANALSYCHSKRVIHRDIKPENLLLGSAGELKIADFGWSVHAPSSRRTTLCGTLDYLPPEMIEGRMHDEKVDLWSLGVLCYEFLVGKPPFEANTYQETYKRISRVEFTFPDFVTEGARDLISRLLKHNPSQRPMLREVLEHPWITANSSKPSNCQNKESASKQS
The experiment in a line: AuroraA Inhibition Assay (coupled enzyme system). Format: biochemical. As to conditions: 200 μM ATP, 800 μM peptide LRRASLG, 35 nM Aurora-A, 30° C. Here is the method:
Compounds were screened for their ability to inhibit full length Aurora-A (AA 1-403) activity using a standard coupled enzyme system (Fox et al., Protein Sci., 7, pp. 2249 (1998)). Reactions were carried out in a solution containing 100 mM HEPES (pH 7.5), 10 mM MgCl2, 25 mM NaCl, 300 μM NADH, 1 mM DTT and 3% DMSO. Final substrate concentrations in the assay were 200 μM ATP (Sigma Chemicals, St Louis, Mo.) and 800 μM peptide (LRRASLG, American Peptide, Sunnyvale, Calif.). Reactions were carried out at 30° C. and 35 nM Aurora-A. Final concentrations of the components of the coupled enzyme system were 2.5 mM phosphoenolpyruvate, 200 μM NADH, 60 μg/ml pyruvate kinase and 20 μg/ml lactate dehydrogenase.
An assay stock buffer solution was prepared containing all of the reagents listed above with the exception of ATP and the test compound of interest. The assay stock buffer solution (60 μl) was incubated in a 96 well plate with 2 μl of the test compound of interest at final concentrations spanning 0.002 μM to 30 μM at 30° C. for 10 min. […] Rates of reaction were obtained using a Molecular Devices Spectramax plate reader (Sunnyvale, Calif.) over 10 min at 30° C. The Ki values were determined from the rate data as a function of inhibitor concentration using computerized nonlinear regression (Prism 3.0, Graphpad Software, San Diego, Calif.).

The term Ki denotes the dissociation constant of the complex between target and ligand, obtained from inhibition or displacement. A low value points to a stronger hold on the target.

`Clc1cnc2[nH]cc(-c3cccc(Br)c3)c2n1` [Compound I-1, 7-(3-Bromo-phenyl)-2-chloro-5H-pyrrolo[2,3-b]pyrazine] displayed a Ki of less than 200 nM.

In turn, `C[C@H](Nc1nc(-c2c[nH]c3ncc(Cl)nc23)ncc1F)c1ccc(F)cc1` [Compound I-28] yielded a Ki of less than 200 nM.
